For orientation: IC50 means the concentration that inhibits the measured activity by half.

Values joined by “and” are separate entries in the source; they are usually repeats but may differ in a detail not shown here. Identical values can stand only once. Like-named read-outs stand apart in the source and are kept apart here. Where only a bound is given, the exact number is not on record here.

We go through 16 molecules from paper PMC10974828, “Identification of Novel Flavonoids and Ansa-Macrolides with Activities against Leishmania donovani through Natural Product Library Screening” (Pathogens, 2024).

One data set concerns T. cruzi. The arrangement: method as in PMID 28498323. Particulars: read-out: IC50 against T. cruzi; cited from earlier work.
Data set [1] concerns L. donovani amastigotes. Also on record: method as in PMID 28498323. The settings on record: read-out: IC50 against L. donovani amastigotes; cited from earlier work.
The test system of a further data set is Trypanosoma brucei. The arrangement: method as in PMID 28498323. Particulars: read-out: IC50 against Trypanosoma brucei; cited from earlier work.
In data set [2] the test system is L. donovani promastigotes. Kind of data set: L. donovani promastigote viability assay (resazurin). The settings on record: Leishmania donovani; 72 h exposure, resazurin readout, two independent experiments; read-out: L. donovani Promastigote Inhibition IC50. Type of data set: cell-based. How it is done:
The inhibition of L. donovani promastigote growth was assessed by measuring the conversion of resazurin to resorufin. The promastigotes were dispensed at a density of 5 × 10^4 L. donovani promastigotes per well into 384-well plates and exposed to the natural product library composed of 2562 molecules at 10 μM for 72 h. Following the incubation, resazurin sodium salt was added, and the plates were further incubated for 5 h before fixation using 4% paraformaldehyde. The results were then analyzed using a Victor3™ plate reader (PerkinElmer, Shelton, CT, USA) at an emission wavelength of 590 nm and an excitation wavelength of 530 nm. Amphotericin B and miltefosine served as reference drugs for inhibiting the growth of L. donovani promastigotes. The hits identified from the screening were confirmed by testing in a 10-point, 1/2 dilution manner starting from 400, 200, 100, or 50 μM (depending on the solubility and activity) in duplicates of two independent experiments to calculate the IC50 values.
(§1) All of the IC50 and the half-maximal cytotoxic concentration (CC50) values were calculated using two independent experiments. Outliers were excluded, and the dose–response curves were fitted using the GraphPad Prism V6.0 software (GraphPad Software, San Diego, CA, USA) by using a sigmoidal dose–response equation with a variable hill slope option.
Background: Resazurin is reduced to fluorescent resorufin, in cell work by metabolically active cells.

The test system of data set [3] is L. donovani intracellular amastigotes. As to the kind of experiment: Intracellular L. donovani amastigote assay in THP-1 cells (image-based). Type of data set: cell-based, Leishmania donovani. Particulars: for IC50: Leishmania donovani, amastigotes in PMA-treated THP-1 cells, 72 h, read-out: Intracellular L. donovani Inhibition IC50; for Selectivity Index (SI): THP-1 CC50 / amastigotes IC50. How it is done: (§2) PMA-treated THP-1 cells were seeded at 0.8 × 10^4 cells per well in a 384-well plate in RPMI-1640 complete medium supplemented with 10% FBS. After 48 h of incubation at 37 °C in the presence of 5% CO2, the L. donovani amastigotes, isolated from infected hamster liver, were added to the cell culture at a ratio of 10:1. The infected THP-1 cells were treated with screening compounds (the same set used in the promastigotes HTS) at 10 µM, with amphotericin B and miltefosine serving as positive controls and 0.5% DMSO as a negative control. After 72 h, the cells and parasites were washed, stained, and fixed with 5 µM DAPI and 4% PFA. Images were acquired through Operetta® CLS™ (PerkinElmer, Shelton, CT, USA), and the numbers of parasites, host cells, and infection ratios were quantified using the Columbus™ software (https://www.perkinelmer.com/product/image-data-storage-and-analysis-system-columbus, accessed on 7 February 2024) (PerkinElmer, Shelton, CT, USA). The hits identified from the screening were confirmed by testing in a 10-point, 1/2 dilution manner starting from 400, 200, 100, or 50 μM in duplicates of two independent experiments to calculate the IC50 values.
as §1

In a further data set the test system is THP-1 cells. As to the kind of experiment: Host cell cytotoxicity in the intracellular Leishmania assay (THP-1 cell ratio). The format is cell-based, Human. The settings on record: host THP-1 cells in the intracellular assay, 72 h. The protocol:
as §2, §1

The next data set has as its system L. infantum. Also on record: method as in PMID 32441133. Particulars: read-out: IC50 against L. infantum; cited from earlier work.
In data set [4] the test system is intracellular amastigotes. Also on record: method as in PMID 37091674. The settings on record: read-out: IC50 against intracellular amastigotes; cited from earlier work.
The next data set relates to hepatic parasites. The arrangement: method as in PMID 37091674. Particulars: murine model of visceral leishmaniasis; cited from earlier work.
For data set [5], the system named is eukaryotic RNA polymerase. The arrangement: method as in PMID 32342856. The settings on record: higher constant indicates lower affinity; cited from earlier work.
For the next data set, the system named is T. brucei. Also on record: method as in PMID 30319238. The settings on record: read-out: IC50 against T. brucei; cited from earlier work.
In data set [6] the test system is L. donovani amastigotes. The arrangement: method as in PMID 30319238. Particulars: read-out: IC50 against L. donovani amastigotes; cited from earlier work.

`CCCCCCC/C=C/C=C/C(=O)NCCc1ccc(O)cc1` [dodeca-2E,4E-dienoic acid 4-hydroxy-2-phenylethylamide]: the values for the IC50 in the data set on T. cruzi, with L. donovani amastigotes [1] and with Trypanosoma brucei were 5.97 µM, 13.3 µM and 7.17 µM, respectively.
On to `CCCCOc1ccc(C(=O)Oc2c(C)c3c4c5c2C(=O)C(=C(N2CCCCC2)C5=O)NC(=O)C(C)=CC=CC(C)C(O)C(C)C(O)C(C)C(OC(C)=O)C(C)C(OC)C=COC(C)(O3)C4=O)cc1` (centres unmarked) [BMD-NP-02070], for which the half-maximal inhibitory concentration (IC50) was determined as 29.9 ± 1.27 µM in [2] and 3.34 ± 0.42 µM in [3]. In data set [3], the “Selectivity Index (SI)” value is more than 15.0.
Consider `COc1ccc(NC2=C3NC(=O)C(C)=CC=CC(C)C(O)C(C)C(O)C(C)C(OC(C)=O)C(C)C(OC)C=COC4(C)Oc5c(C)c(OC(=O)c6ccc(C)cc6)c(c(c5C4=O)C2=O)C3=O)cc1` (centres unmarked) [BMD-NP-02085], for which the IC50 in data set [2] came to 1.76 ± 0.28 µM. Further, in data set [3], the IC50 came to 1.76 ± 0.85 µM; the “Selectivity Index (SI)” value is 7.5 and 7.4. In addition, in the data set on THP-1 cells, the “THP-1 Cell Ratio CC50” value was 13.07 µM and 13.07 ± 0.56 µM.
For `O[C@H]1[C@H]2c3cc4c(cc3CN3CCC(=C[C@@H]1O)[C@H]23)OCO4` [BMD-NP-01077, Lycorine], the IC50 in data set [2] came out at 6.99 ± 0.74 µM. For the same molecule, in [3], the half-inhibitory concentration (IC50) was 2.63 ± 0.57 µM and the “Selectivity Index (SI)” value was more than 19.0. Further, the “THP-1 Cell Ratio CC50” value in the data set with THP-1 cells is on record as more than 50.00 µM.
Taken in the same sequence, the figures for `COC1C=COC2(C)Oc3c(C)c(OC(=O)c4ccccc4)c4c(c3C2=O)C(=O)C(N2CC(C)OC(C)C2)=C(NC(=O)C(C)=CC=CC(C)C(O)C(C)C(O)C(C)C(OC(C)=O)C1C)C4=O` (centres unmarked) [BMD-NP-02084] were 2.53 ± 0.14 µM, 2.12 ± 0.4 µM, 5.9 and 12.45 ± 1.02 µM.
Regarding `CCCC1CC(=O)Oc2c(C(=O)C(C)C(C)O)c(O)c3c(c21)OC(C)(C)C=C3` (centres unmarked) [Calanolide E2], in the data set with L. infantum, the half-inhibitory concentration (IC50) is 29.1 µM.
Consider `O=C1C[C@H](c2cccnc2)c2c(cc(O)c3c(=O)c(-c4ccc(Cl)cc4)coc23)O1` [BMD-NP-01559], for which the results for the concentration for half-maximal inhibition (IC50) in data set [2] and in data set [3] were 19.08 ± 0.13 µM and 2.37 ± 0.49 µM, respectively. Also, the “Selectivity Index (SI)” value in data set [3] is more than 21.1. Moreover, the “THP-1 Cell Ratio CC50” value in the data set on THP-1 cells is on record as more than 50.00 µM.
Taken in the same sequence, the figures for `CC(C)C1CC(=O)Oc2cc(O)c3c(=O)cc(-c4ccc(O)c(O)c4)oc3c21` (centres unmarked) [BMD-NP-01550] were 23.5 ± 0.52 µM, 3.44 ± 0.64 µM, 6.1 and 20.84 ± 1.04 µM.
Turning to `COc1ccc(CCOc2cc([C@@H]3CC(=O)Oc4cc(O)c5c(=O)cc(-c6ccc(O)c(O)c6)oc5c43)ccc2OC)cc1` [BMD-NP-02255], the IC50 in [2] turned out to be 45.9 ± 1.09 µM; in data set [3] it was 4.9 ± 0.65 µM. In the data set on THP-1 cells, the “THP-1 Cell Ratio CC50” value is more than 50.00 µM.
Taken in the same sequence, the figures for `COc1cc([C@@H]2CC(=O)Oc3ccc4c(=O)c(-c5ccccc5)coc4c32)ccc1O` [BMD-NP-01555] were 12.9 ± 0.28 µM, 2.2 ± 0.29 µM and more than 50.00 µM.
`O=c1cc(-c2ccc(O)cc2)oc2cc(O)cc(O)c12` [apigenin, 4′,5,7-trihydroxyflavone]: the IC50 in [4] was 2.3 µM. Moreover, the “reduction in hepatic parasites” value in the data set on hepatic parasites is 99.7%.
On to `COc1cc(C=C2Oc3c(ccc4c3C(c3ccnn3C(C)C)CC(=O)O4)C2=O)cc(OC)c1OC` (centres unmarked) [BMD-NP-01586], for which the IC50 in [2] amounted to 36.3 ± 0.42 µM. Also, in data set [3], the IC50 came out at 2.97 ± 0.33 µM and the “Selectivity Index (SI)” value came out at 12.4. Further, the “THP-1 Cell Ratio CC50” value in the data set with THP-1 cells was 36.90 ± 1.13 µM.
Taken in the same sequence, the figures for `COc1ccc([C@H]2CC(=O)Oc3ccc4c(c32)O/C(=C\c2cc(OC)c(OC)cc2OC)C4=O)cc1O` [BMD-NP-01562] were 9.88 ± 0.71 µM, 5.1 ± 0.34 µM, more than 9.8 and more than 50.00 µM.
Taken in the same sequence, the figures for `OC1C=C2CCN3Cc4cc5c(cc4C(C1O)C23)OCO5` (centres unmarked) [BMD-NP-00820] were 3.99 ± 0.4 µM, 1.74 ± 0.27 µM, more than 28.7 and more than 50.00 µM.
With `CO[C@H]1/C=C/O[C@@]2(C)Oc3c(C)c(O)c4c(O)c(cc(O)c4c3C2=O)NC(=O)/C(C)=C\C=C\[C@H](C)[C@H](O)[C@@H](C)[C@@H](O)[C@@H](C)[C@H](OC(C)=O)[C@@H]1C` [Rifamycin], the “binding constant for eukaryotic RNA polymerase relative to prokaryotic RNA polymerase” value in [5] is 100 times.
For “methyl-ent-3β-hydroxylabd-8(17)-en-15-oate”, the IC50 in the data set with T. brucei was 3.84 µM; with L. donovani amastigotes [6] it was 7.82 µM.
